BigSolDB 2.1

N[C@@H](C(=O)N[C@@H]1C(=O)N2C(C(=O)O)=C(Cl)CS[C@H]12)c1ccccc1.O
solubility (mole fraction)
Details	278.15 K	283.15 K	288.15 K	293.15 K	298.15 K	303.15 K	308.15 K	313.15 K
in acetone	2.05e-05	2.67e-05	3.43e-05	4.35e-05	5.48e-05	6.84e-05	8.57e-05	0.000108
in ethanol	2.36e-05	3.05e-05	3.86e-05	4.76e-05	5.71e-05	6.72e-05	7.92e-05	9.55e-05
in methanol	8.68e-05	0.000101	0.000115	0.000129	0.000145	0.000163	0.000186	0.000214
in water	0.000387	0.000401	0.000417	0.000445	0.000476	0.000511	0.000551	0.000602
